# Where two headings read alike, the source gives them in different places.
# Assays:
# [1] = Back-extraction from 30% TBP in kerosene (modified PUREX) with 343HOPO; details: 1 mM 343HOPO, up to 8 M HNO3
# Protocol: Dotted lines: separation factor U/Pu. Organic phase: 30% TBP in kerosene.
# (§1) For Example 20—Example 24, pH measurements were performed with a glass electrode (Metrohm-Micro Combi-response to [H+]) calibrated at 25.0° C. using three NIST standards. Extraction samples were analyzed by liquid scintillation counting (LSC). The distribution coefficient, D(M), of a given metal, M, is defined in Eq. 1, where [M]organic and [M]aqueous are the respective total concentrations of M in the organic and aqueous layers, after extraction. Both concentrations are proportional to the volumetric activity (in Bq/L) determined by LSC. The separation factor, SFM1/M2, between two metals, M1 and M2, and extraction yield were calculated according to Eq. 2 and Eq. 3, respectively.
# In a typical experiment, the solvent (extractant diluted in kerosene) was pre-conditioned by shaking one volume of solvent with three volumes of aqueous phase (typically HNO3) at room temperature for 1 h, thrice. […] Samples were counted for at least 6 min and results were background subtracted. […] Mixtures of ^249Bk and ^249Cf were analyzed using α/β discrimination and energy windows were set to 0-50 keV for low-energy β particles of ^249Bk and 50-1000 keV for α particles of ^249Cf. ^243Am and ^225Ac samples were counted at secular equilibrium.
# [2] = Persistence of the metal complex versus acidity; format: binding; details: Hf^4+
# [3] = Persistence of the metal complex versus acidity; format: binding; details: Sn^4+
# [4] = Extraction by HDEHP at constant pH with 3,4,3-LI(1,2-HOPO) as hold-back reagent; details: 1 mM ligand; for % Extraction: 0.1 M HNO3/1.9 M NaNO3, extraction of ^242Plutonium(IV); for SF Am^3+/Pu^4+: to be seen as lower limit
# Protocol: (§2) In FIG. 26, aqueous phase: [ligand]=1 mM, buffer 0.1 M HNO3/1.9 M NaNO3. Organic phase: HDEHP diluted in kerosene. [HDEHP]=0.05, 0.10, 0.25, 0.50, 1.0, or 2.0 M. T=25° C. Volume organic phase/Volume aqueous phase=1. Initial metal concentrations: [Pu-242]=10 μM, [Am-243]=0.25 μM, or [Gd-153]=0.16 nM. Phases analyzed after one contact. Contact time: 30 min.
# (§3) The separation factor values given here must been seen as lower limit since the extraction of Pu(IV) is near zero.
# [5] = Lu^3+; 25° C.; cited from earlier work
# [6] = Extraction by TODGA from HNO3 in the absence or presence of 1 mM 343HOPO
# Protocol: Organic phase: 0.1 M TODGA in kerosene. Aqueous solvent: HNO3. T=25° C. O/A=1, one contact. Points with arrows are lower limits.
# as §1
# In a typical experiment, the solvent (extractant diluted in kerosene) was pre-conditioned by shaking one volume of solvent with three volumes of aqueous phase (typically HNO3) at room temperature for 1 h, thrice. For radioisotope extractions, at least 400 μL aqueous phase (typically containing HNO3, a chelator and a radioisotope) and solvent were placed in air-tight screw-capped plastic tubes, triply-contained, and shaken in a thermoshaker at 300 rpm, 25° C., for at least 30 min. Samples were then centrifuged for 5 min at 3000 rpm and phases separated before analysis. LSC analyses were performed on a Packard Tri-Carb B4430 instrument (Perkin Elmer) after mixing sample aliquots or sample dilution aliquots (10 to 200 μL) with 10 mL of scintillation cocktail (UltimaGold LLT). Samples were counted for at least 6 min and results were background subtracted. The analytical samples contained between 0 and 800,000 CPM. Mixtures of ^249Bk and ^249Cf were analyzed using α/β discrimination and energy windows were set to 0-50 keV for low-energy β particles of ^249Bk and 50-1000 keV for α particles of ^249Cf. ^243Am and ^225Ac samples were counted at secular equilibrium.
# [7] = Extraction by HDEHP at constant pH with 3,4,3-LI(1,2-HOPO) as hold-back reagent; details: 1 mM ligand, 0.1 M HNO3/1.9 M NaNO3; for % Extraction: extraction of ^243Americium(III)
# Protocol: as §2, §3
# as §2, with “28,” for “26,”, “concentrations:” for “concentrations: [Pu-242]=10 μM,”, “min. Corresponding separation factors (SF) are given on the right Y-axis. SF Gd/Am=Ratio [Gd]/[Am] in the final organic phase/Ratio [Gd]/[Am] in the initial aqueous solution.” for “min.”
# [8] = Cd^2+; 25° C.; cited from earlier work
# [9] = Gd^3+; 25° C.; cited from earlier work
# [10] = Extraction by HDEHP at constant pH with 3,4,3-LI(1,2-HOPO) as hold-back reagent; details: 1 mM ligand; for % Extraction: 0.1 M HNO3/1.9 M NaNO3, extraction of ^153Gadolinium(III); for SF Gd^3+/Pu^4+: to be seen as lower limit
# Protocol: as §2
# The separation factor values given here must been seen as lower limit since the extraction of Pu(IV) is near zero. […]
# [11] = Am^3+; 25° C.; cited from earlier work
smiles,measurement,setting,value
"O=C(NCCCN(CCCCN(CCCNC(=O)c1cccc(=O)n1O)C(=O)c1cccc(=O)n1O)C(=O)c1cccc(=O)n1O)c1cccc(=O)n1O [3,4,3-LI(1,2-HOPO)]",SFU/Pu,[1],"≤ 5,800"
same,acidity range over which the ligand stays bound,[2],from pH 8 to strongly acidic solutions (at least 6 M HCl)
same,acidity range over which the ligand stays bound,[3],from pH 8 to 1 M HCl
same,% Extraction,[4]; HDEHP 0.05 M,0.02%
same,SF Am^3+/Pu^4+,[4]; HDEHP 0.05 M,14
same,% Extraction,[4]; HDEHP 0.10 M,0.02%
same,SF Am^3+/Pu^4+,[4]; HDEHP 0.10 M,84
same,% Extraction,[4]; HDEHP 0.25 M,0.05%
same,SF Am^3+/Pu^4+,[4]; HDEHP 0.25 M,236
same,% Extraction,[4]; HDEHP 0.50 M,0.03%
same,SF Am^3+/Pu^4+,[4]; HDEHP 0.50 M,1450
same,% Extraction,[4]; HDEHP 1.00 M,0.16%
same,SF Am^3+/Pu^4+,[4]; HDEHP 1.00 M,624
same,% Extraction,[4]; HDEHP 2.00 M,0.21%
same,SF Am^3+/Pu^4+,[4]; HDEHP 2.00 M,649
same,log βML,[5],21.2 ± 0.1
same,SFU/Pu,"[6]; 1 mM 343HOPO, 0.1 M TODGA in kerosene","around 50,000"
same,SF values between the trivalent ions and Pu^4+,"[6]; 1 mM 343HOPO, 0.1 M TODGA in kerosene, LoD reached","above 450,000,000"
same,separation factor for redox-free Pu purification against uranyl ions and trivalent actinides or fission products,[6]; summary statement,over 10^8
same,SF Gd^3+/Am^3+,[7]; HDEHP 0.05 M,24.1
same,% Extraction,[7]; HDEHP 0.05 M,0.21%
same,SF Gd^3+/Am^3+,[7]; HDEHP 0.10 M,23.3
same,% Extraction,[7]; HDEHP 0.10 M,1.32%
same,SF Gd^3+/Am^3+,[7]; HDEHP 0.25 M,25.3
same,% Extraction,[7]; HDEHP 0.25 M,10.08%
same,SF Gd^3+/Am^3+,[7]; HDEHP 0.50 M,27.0
same,% Extraction,[7]; HDEHP 0.50 M,30.27%
same,SF Gd^3+/Am^3+,[7]; HDEHP 1.00 M,45.6
same,% Extraction,[7]; HDEHP 1.00 M,49.98%
same,SF Gd^3+/Am^3+,[7]; HDEHP 2.00 M,99.8
same,% Extraction,[7]; HDEHP 2.00 M,57.29%
same,log βML,[8],16.1 ± 0.3
same,log βML,[9],20.5 ± 0.1
same,% Extraction,[10]; HDEHP 0.05 M,4.92%
same,SF Gd^3+/Pu^4+,[10]; HDEHP 0.05 M,331
same,% Extraction,[10]; HDEHP 0.10 M,23.79%
same,SF Gd^3+/Pu^4+,[10]; HDEHP 0.10 M,1948
same,% Extraction,[10]; HDEHP 0.25 M,73.91%
same,SF Gd^3+/Pu^4+,[10]; HDEHP 0.25 M,5976
same,% Extraction,[10]; HDEHP 0.50 M,92.15%
same,SF Gd^3+/Pu^4+,[10]; HDEHP 0.50 M,39182
same,% Extraction,[10]; HDEHP 1.00 M,97.85%
same,SF Gd^3+/Pu^4+,[10]; HDEHP 1.00 M,28460
same,% Extraction,[10]; HDEHP 2.00 M,99.26%
same,SF Gd^3+/Pu^4+,[10]; HDEHP 2.00 M,64723
same,log βML,[11],20.4 ± 0.2
